The values that follow come from patent US20070048225A1, “NK3 receptor in vivo assay” (priority 2005, published 2007).

Assay [1] has as its system NK3 receptor. The assay can be described thus: Senktide-induced locomotor activity in gerbils (total distance traveled). Type of assay: in vivo, Mongolian gerbil. To be noted: senktide 0.01, 0.03 or 0.1 nM/5 μL ICV tested, effect at 0.1 nM/5 μL, activity measured for 90 minutes, FIG. 1.
Procedure: Male and female Mongolian gerbils [Biological Research Laboratories, 4414 Füllinsdorf, Switzerland] weighing between 40-70 g were used. Gerbils were housed four per cage for approximately four to seven days following arrival in the laboratory colony. The gerbils had ad libitum access to tap water and lab chow in the home cage. The animal quarters were maintained on a 12:12 hour light-dark cycle with light onset at 6 a.m. and with both temperature (21-23° C.) and humidity (55-65%) regulated. All testing was conducted during the light phase of the light-dark cycle. All procedures described here received prior approval from the City of Basel Cantonal Animal Protection Committee based on adherence to federal and local regulations. The experiments were carried out in an animal colony supervised by the veterinary staff of Hoffmann-La Roche Ltd.
The antagonists were prepared immediately prior to use (vehicle 0.3% Tween-80/saline). […]
The incision was closed using a clip suture and gerbils were placed into perspex boxes on recovery of their righting reflex and then placed into locomotor activity boxes (Accuscan instruments, USA). Activity was then measured automatically for a period of 90 minutes.
Data were analysed using a One way anova followed by Dunnet multiple comparison test or t-test (one-tailed) where appropriate (Statistica, Statsoft).
For assay [2], the target named is T1, NK3-receptor (Homo sapiens, UniProt P29371).
T1 construct: active in a double blind placebo controlled clinical trial in schizophrenia patients; host or cells: schizophrenia patients (Meltzer et al., Am J Psych 161:975-84, 2004)
T1 sequence (P29371 1-465): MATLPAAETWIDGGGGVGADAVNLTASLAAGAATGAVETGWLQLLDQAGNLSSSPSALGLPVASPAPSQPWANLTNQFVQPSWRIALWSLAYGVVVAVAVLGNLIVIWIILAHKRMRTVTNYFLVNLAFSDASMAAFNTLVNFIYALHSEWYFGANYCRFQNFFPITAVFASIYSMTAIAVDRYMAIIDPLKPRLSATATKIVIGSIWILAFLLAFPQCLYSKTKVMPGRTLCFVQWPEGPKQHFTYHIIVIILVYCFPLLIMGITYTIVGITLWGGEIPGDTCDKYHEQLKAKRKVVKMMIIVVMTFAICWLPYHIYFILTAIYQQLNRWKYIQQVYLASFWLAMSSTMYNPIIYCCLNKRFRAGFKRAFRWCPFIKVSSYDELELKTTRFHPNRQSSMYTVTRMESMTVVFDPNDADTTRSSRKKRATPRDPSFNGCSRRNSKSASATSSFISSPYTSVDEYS
To be noted: double blind placebo controlled; Meltzer et al. 2004; cited from earlier work.

The structures appear in SMILES notation. Numbered stars: 1 amine (or outer) side, 2 acyl side, 3 side chain; on linkers, the order of the positions; unused ones are H or OH. Square brackets hold non-standard residues; d marks the D form. Peptide text beside a SMILES is read from it. NMeF = CN[C@@H](Cc1ccccc1)C(=O)O; Suc = O=C(CCC(=O)[*:2])[*:1]

On to `CSCC[C@H](NC(=O)[C@H](CC(C)C)NC(=O)CNC(=O)[C@H](Cc1ccccc1)N(C)C(=O)[C@H](Cc1ccccc1)NC(=O)[C@H](CC(=O)O)NC(=O)CCC(=O)O)C(N)=O` [Senktide, N-(3-carboxy-1-oxopropyl)-L-α-aspartyl-L-phenylalanyl-N-methyl-L-phenylalanylglycyl-L-leucyl-L-methioninamide] (Suc-DF[NMeF]GLM-NH2), for which, in assay [1], the “total distance traveled (locomotor activity)” value is “significant increase”. In the case of `CC(=O)N(C)C1(c2ccccc2)CCN(CCC[C@]2(c3ccc(Cl)c(Cl)c3)CCCN(C(=O)c3ccccc3)C2)CC1` [SR142801], the “activity in clinical trial in schizophrenia patients” value in assay [2] is “active”.
